One experiment addresses human orexin-2 receptor (Homo sapiens (Human), UniProt O43614). Kind of experiment: FLIPR Ca2+ flux assay, hOX2R. The class given is cell-based. As to conditions: CHO cells expressing human orexin-2 receptor; agonist 70 pM Ala-6,12 orexin-A. How it is done: In a typical experiment the OX1 and OX2 receptor antagonistic activity of the compounds of the present invention was determined in accordance with the following experimental method. For intracellular calcium measurements, Chinese hamster ovary (CHO) cells expressing the rat orexin-1 receptor or the human orexin-2 receptor, are grown in Iscove's modified DMEM containing 2 mM L-glutamine, […], 1% hypoxanthine-thymidine supplement, 100 U/ml penicillin, 100 μg/ml streptomycin and 10% heat-inactivated fetal calf serum (FCS). The cells are seeded at 20,000 cells/well into Becton-Dickinson black 384-well clear bottom sterile plates coated with poly-D-lysine. All reagents were from GIBCO-Invitrogen Corp. The seeded plates are incubated overnight at 37° C. and 5% CO2. Ala-6,12 human orexin-A as the agonist is prepared as a 1 mM stock solution in 1% bovine serum albumin (BSA) and diluted in assay buffer (HBSS containing 20 mM HEPES, 0.1% BSA and 2.5 mM probenecid, pH7.4) for use in the assay at a final concentration of 70 pM. Test compounds are prepared as 10 mM stock solution in DMSO, then diluted in 384-well plates, first in DMSO, then assay buffer. On the day of the assay, cells are washed 3 times with 100 μl assay buffer and then incubated for 60 min (37° C., 5% CO2) in 60 μl assay buffer containing 1 μM Fluo-4AM ester, 0.02% pluronic acid, and 1% BSA. The dye loading solution is then aspirated and cells are washed 3 times with 100 μl assay buffer. 30 μl of that same buffer is left in each well. Within the Fluorescent Imaging Plate Reader (FLIPR, Molecular Devices), test compounds are added to the plate in a volume of 25 μl, incubated for 5 min and finally 25 μl of agonist is added. Fluorescence is measured for each well at 1 second intervals for 5 minutes and the height of each fluorescence peak is compared to the height of the fluorescence peak induced by 70 pM Ala-6,12 orexin-A with buffer in place of antagonist. […] The intrinsic orexin receptor antagonist activity of a compound which may be used in the present invention may be determined by these assays.
(Calcium flux is commonly read through the fluorescence of an indicator in the cells.)

In a further experiment the target is hOX1R (Homo sapiens, UniProt O43613). Kind of experiment: FLIPR Ca2+ flux assay, hOX1R. As to conditions: CHO cells; agonist 70 pM Ala-6,12 orexin-A; rat orexin-1 receptor; read-out: hOX1R FLIPR IC50. The experiment is classed as cell-based.

Where only a bound is given, the exact number is not on record here.

For 19 compounds, IC50 results are on record in US9828368B2 (MERCK SHARP & DOHME CORP., priority 2013, dated 2017).

human orexin-2 receptor, sequence (O43614 whole entry): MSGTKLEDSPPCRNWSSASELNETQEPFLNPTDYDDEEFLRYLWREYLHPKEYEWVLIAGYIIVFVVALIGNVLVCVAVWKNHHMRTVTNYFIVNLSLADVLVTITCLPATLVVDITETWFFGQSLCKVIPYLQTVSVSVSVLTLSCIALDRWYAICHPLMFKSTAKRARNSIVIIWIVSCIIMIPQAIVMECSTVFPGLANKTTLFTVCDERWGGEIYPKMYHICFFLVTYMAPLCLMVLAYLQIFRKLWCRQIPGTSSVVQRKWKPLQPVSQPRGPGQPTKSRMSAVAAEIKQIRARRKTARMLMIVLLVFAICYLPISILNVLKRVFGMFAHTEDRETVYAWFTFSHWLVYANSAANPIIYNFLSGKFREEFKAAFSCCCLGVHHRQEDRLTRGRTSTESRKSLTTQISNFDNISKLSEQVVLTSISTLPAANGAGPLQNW

In the case of `C[C@@H]1CC[C@@H](c2nc(C(C)(C)O)c(C(F)(F)F)o2)CN1C(=O)c1ccccc1-n1nccn1` [Example 54, (2-(2H-1,2,3-Triazol-2-yl)phenyl)((2R,5R)-5-(4-(2-hydroxypropan-2-yl)-5-(trifluoromethyl)oxazol-2-yl)-2-methylpiperidin-1-yl)methanone], the 50% inhibitory concentration (IC50) at human orexin-2 receptor was found to be 42 nM; at hOX1R, 240 nM.
For `Cc1nc([C@@H]2CC[C@@H](C)N(C(=O)c3ccccc3-n3nccn3)C2)oc1C(C)(C)O` [Example 55, (2-(2H-1,2,3-Triazol-2-yl)phenyl)((2R,5R)-5-(5-(2-hydroxypropan-2-yl)-4-methyloxazol-2-yl)-2-methylpiperidin-1-yl)methanone] the same measures were 63 nM and 89 nM.
`COC(=O)c1nc([C@@H]2CC[C@@H](C)N(C(=O)c3ccccc3-n3nccn3)C2)oc1-c1ccccc1` [Example 56, Methyl 2-((3R,6R)-1-(2-(2H-1,2,3-triazol-2-yl)benzoyl)-6-methylpiperidin-3-yl)-5-phenyloxazole-4-carboxylate]: the figures for the IC50 on human orexin-2 receptor and on hOX1R were 1590 nM and 359 nM, respectively.
The like results for `C[C@@H]1CC[C@@H](c2nc(CO)c(-c3ccccc3)o2)CN1C(=O)c1ccccc1-n1nccn1` [Example 57, (2-(2H-1,2,3-Triazol-2-yl)phenyl)((2R,5R)-5-(4-(hydroxymethyl)-5-phenyloxazol-2-yl)-2-methylpiperidin-1-yl)methanone] were, in that order, 1170 nM and 368 nM.
The like results for `C[C@@H]1CC[C@@H](c2nc(CF)c(-c3ccccc3)o2)CN1C(=O)c1ccccc1-n1nccn1` [Example 58, (2-(2H-1,2,3-Triazol-2-yl)phenyl)((2R,5R)-5-(4-(fluoromethyl)-5-phenyloxazol-2-yl)-2-methylpiperidin-1-yl)methanone] were, in that order, 159 nM and 220 nM.
The like results for `COCc1nc([C@@H]2CC[C@@H](C)N(C(=O)c3ccccc3-n3nccn3)C2)oc1-c1ccccc1` [Example 59, (2-(2H-1,2,3-Triazol-2-yl)phenyl)((2R,5R)-5-(4-(methoxymethyl)-5-phenyloxazol-2-yl)-2-methylpiperidin-1-yl)methanone] were, in that order, 347 nM and 100 nM.
Take `C[C@@H]1CC[C@@H](c2nc(C(C)(C)O)c(-c3ccccc3)o2)CN1C(=O)c1ccccc1-n1nccn1` [Example 60, (2-(2H-1,2,3-Triazol-2-yl)phenyl)((2R,5R)-5-(4-(2-hydroxypropan-2-yl)-5-phenyloxazol-2-yl)-2-methylpiperidin-1-yl)methanone]: the IC50 was found to be 84 nM on human orexin-2 receptor and 76 nM at hOX1R.
Consider `C[C@@H]1CC[C@@H](c2nc(C(N)=O)c(-c3ccccc3)o2)CN1C(=O)c1ccccc1-n1nccn1` [Example 61, 2-((3R,6R)-1-(2-(2H-1,2,3-Triazol-2-yl)benzoyl)-6-methylpiperidin-3-yl)-5-phenyloxazole-4-carboxamide], for which the IC50 on human orexin-2 receptor was found to be 197 nM; on hOX1R it was 65 nM.
For `C[C@@H]1CC[C@@H](c2nc(CC(C)(C)O)c(-c3ccccc3)o2)CN1C(=O)c1ccccc1-n1nccn1` [Example 68, (2-(2H-1,2,3-Triazol-2-yl)phenyl)((2R,5R)-5-(4-(2-hydroxy-2-methylpropyl)-5-phenyloxazol-2-yl)-2-methylpiperidin-1-yl)methanone] the same measures were 62 nM and 95 nM.
The like results for `COC(C)(C)Cc1nc([C@@H]2CC[C@@H](C)N(C(=O)c3ccccc3-n3nccn3)C2)oc1-c1ccccc1` [Example 69, (2-(2H-1,2,3-Triazol-2-yl)phenyl)((2R,5R)-5-(4-(2-methoxy-2-methylpropyl)-5-phenyl-oxazol-2-yl)-2-methylpiperidin-1-yl)methanone] were, in that order, 287 nM and 385 nM.
For `C[C@@H]1CC[C@@H](c2nc(CCO)c(-c3ccccc3)o2)CN1C(=O)c1ccccc1-n1nccn1` [Example 70, (2-(2H-1,2,3-Triazol-2-yl)phenyl)((2R,5R)-5-(4-(2-hydroxyethyl)-5-phenyloxazol-2-yl)-2-methylpiperidin-1-yl)methanone] the same measures were 59 nM and 38 nM.
For `C[C@@H]1CC[C@@H](c2nc(CCF)c(-c3ccccc3)o2)CN1C(=O)c1ccccc1-n1nccn1` [Example 71, (2-(2H-1,2,3-triazol-2-yl)phenyl)((2R,5R)-5-(4-(2-fluoroethyl)-5-phenyloxazol-2-yl)-2-methylpiperidin-1-yl)methanone], the values for the half-inhibitory concentration (IC50) on human orexin-2 receptor and at hOX1R were 61 nM and 70 nM, respectively.
For `Cc1ccc(-n2nccn2)c(C(=O)N2C[C@H](c3ncc(C)o3)CC[C@H]2C)c1` [Example 72, (5-Methyl-2-(2H-1,2,3-triazol-2-yl)phenyl)((2R,5R)-2-methyl-5-(5-methyloxazol-2-yl)piperidin-1-yl)methanone] the same measures were 433 nM and 4540 nM.
`C[C@@H]1CC[C@@H](c2ncc(C(C)(C)C)o2)CN1C(=O)c1ccccc1-n1nccn1` [Example 73, (2-(2H-1,2,3-Triazol-2-yl)phenyl)((2R,5R)-5-(5-(tert-butyl)oxazol-2-yl)-2-methylpiperidin-1-yl)methanone]: the IC50 at human orexin-2 receptor was found to be 30 nM; at hOX1R, 151 nM.
For `C[C@@H]1CC[C@@H](c2ncc(-c3ccccc3)o2)CN1C(=O)c1ccccc1-n1nccn1` [Example 74, (2-(2H-1,2,3-Triazol-2-yl)phenyl)((2R, 5R)-2-methyl-5-(5-phenyloxazol-2-yl)piperidin-1-yl)methanone] the same measures were 111 nM and 55 nM.
For the compound `C[C@@H]1CC[C@@H](c2ncc(C3CCC3)o2)CN1C(=O)c1ccccc1-n1nccn1` [Example 75, (2-(2H-1,2,3-Triazol-2-yl)phenyl)((2R, 5R)-5-(5-cyclobutyloxazol-2-yl)-2-methylpiperidin-1-yl)methanone], the results for the 50% inhibitory concentration (IC50) at human orexin-2 receptor and at hOX1R were 16 nM and 59 nM, respectively.
The like results for `C[C@@H]1CC[C@@H](c2ncc(C3CC3)o2)CN1C(=O)c1ccccc1-n1nccn1` [Example 76, (2-(2H-1,2,3-Triazol-2-yl)phenyl)((2R, 5R)-5-(5-cyclopropyloxazol-2-yl)-2-methylpiperidin-1-yl)methanone] were, in that order, 33 nM and 973 nM.
The like results for `C[C@@H]1CC[C@@H](c2nc(-c3ccccc3)c(-c3ccccc3)o2)CN1C(=O)c1ccccc1-n1nccn1` [Example 77, (2-(2H-1,2,3-Triazol-2-yl)phenyl)((2R,5R)-5-(4,5-diphenyloxazol-2-yl)-2-methylpiperidin-1-yl)methanone] were, in that order, 515 nM and 451 nM.
On to “((2R,5R)-5-(4-(2-Hydroxypropan-2-yl)-5- methyloxazol-2-yl)-2-methylpiperidin-1-yl)(2- methoxyphenyl)methanone [Example 30]”, for which the figures for the concentration for half-maximal inhibition (IC50) at human orexin-2 receptor and at hOX1R were 29.4 nM and greater than 10000 nM, respectively.

One may read the IC50 as the concentration that gives 50% inhibition.
